Results reported in patent US5135952A, “Antiinflammatory and/or antiallergic methods” (Senju Pharmaceutical Co., ltd., priority 1989, dated 1992).

Experiments:
hygroscopicity = assay type: physicochemical
[1] = tested on: carrageenan-induced conjunctival edema; experiment: Effect on Rat Carrageenan-Induced Conjunctival Edema; assay type: in vivo, rat (male Wistar); details: for Edema weight / % Inhibition (edema weight): 3 hours, n = 10; for Edema weight: mean ± S.E.; for effect on rat carrageenan-induced conjunctival edema, in words: DCE-GS 3, 10, 30 mg/kg i.v., ester derivatives and GSH 30 mg/kg
Description: Effect on Rat Carrageenan-Induced Conjunctival Edema Male Wistar rats weighing about 130 g were used in the experiment. S-(α,β-Dicarboxyethyl)glutathione (hereinafter referred to as DCE-GS) dissolved in physiological saline and adjusted with sodium hydrochloride to pH 7 was administered in doses of 3, 10 and 30 mg/kg to rats through the caudal vein (control group: physiological saline). […] One minute later, 50 μl of 1% carrageenan solution was injected beneath the palpebral conjunctiva of the rat under pentobarbital anesthesia. After three hours, each rat was sacrificed and conjunctival edema was isolated and weighted.

platelet = details: previously discovered by the inventors (Japanese Kokai 63-8337/1988; Japanese Application 1-79956/1989); cited from earlier work
[2] = tested on: passive anaphylaxis of the back of the rat; experiment: Effect on Passive Anaphylaxis of the Back of the Rat; assay type: in vivo, rat (male Wistar); details: for Area, Inhibition (%) / Dye, Inhibition (%) / Area (of stain) / Dye: 30 minutes; for Area (of stain) / Dye: mean ± S.E., n = 4 or 5; for Area (of stain): saline 926 ± 65; for Dye: saline 767 ± 87
Description: Effect on Passive Anaphylaxis of the Back of the Rat
Male Wistar rats weighing about 130 g were used in the experiment. The back hair of each rat was clipped with clippers. The rat antiserum was injected intradermally at the back of the rat. After three days, DCE-GS was administered in doses of 3, 10 and 30 mg/kg (physiological saline to controls) into the caudal vein and after one minute 1 ml of a 50:50 (v/v) mixture of the antigen 1% ovalbumin and 2% Evans blue was administered intravenously to induce passive anaphylaxis. After 30 minutes, the rat was sacrificed and the stained area was determined. The pertinent area was removed and the dye was extracted with 20 ml of formaldehyde for determination.

male ddY mice = experiment: Intravenous Acute Toxicity Study; assay type: in vivo, mouse (male ddY); details: i.v.; 100, 200, 400, 800 and 1,600 mg/kg; seventy-two-hour observation; groups of 5
Description: Intravenous Acute Toxicity Study
The intravenous acute toxicity study of DCE-GS was conducted in male ddY mice, weighing about 20 g, in groups of 5. The doses were 100, 200, 400, 800 and 1,600 mg/kg (common ratio 2). All the injections were adjusted with 1N sodium hydrochloride to pH 7.

[3] = tested on: rat peritoneal mast cells; experiment: Inhibitory Effect on the Release of Histamine from Rat Peritoneal Exudate Cells (Compound 48/80-induced); assay type: cell-based, rat (male SD); details: for % Release (histamine): mean ± S.E., boiled control specimen = 100%, control 75.0 ± 6.7
Description: Inhibitory Effect on the Release of Histamine from Rat Peritoneal Exudate Cells
(1) Preparation of rat peritoneal cell suspension
Male SD rats weighing 250 to 280 g were used. The rat peritoneal cells were collected and isolated according to the method of Sullivan et al. First, the rat was bled to death by decapitation and immediately the hair of the abdomen was shaved, the skin was incised a few centimeters, and 10 ml of mast cell medium (MCM) was injected into the peritoneal cavity using a 18-G needle while picking up the muscle with tweezers, followed by 90-sec gentle massage. Then, the abdomen was opened to collect as much ascites as possible using a Terumo syringe. The ascites contaminated with blood was not used in the experiment. The ascites was layered in a polycarbonate tube containing 2 ml of 40% Ficoll 400 (Pharmacia) dissolved in MCM, allowed to stand at room temperature for 30 minutes, and centrifuged at 700 rpm at 4° C. for 10 minutes. Then, the sediment in the upper layer of Ficoll 400 was pipetted and washed three times with about 7 ml of MCM. The cells were counted with a Burker-Turk cytometer and using MCM as a diluent, a cell suspension of about 10^5 cells/ml (rat peritoneal cell suspension) was prepared. Mast cells were identified by staining intracellular granules with 0.05% toluidine blue.
(2) Release of histamine from mast cells
After 0.8 ml of rat peritoneal cell suspension was preincubated at 37° C. for 10 minutes, 0.1 ml of the test drug was added. The system was incubated for 5 minutes, at the end of which time 0.1 ml of 10 μg/ml of Compound 48/80 (Sigma) in physiological saline was added. After 10 minutes' incubation, the reaction mixture was cooled in ice-water for 10 minutes to terminate the reaction and centrifuged at 700 rpm at 4° C. for 5 minutes. Then, histamine in the supernatant was determined by HPLC in accordance with the method of Shore et al. as partially modified.

[4] = previously discovered by the inventors (Japanese Kokai 63-8337/1988; Japanese Application 1-79956/1989); cited from earlier work
[5] = Table 2, 30 mg/kg, *p < 0.01, **p < 0.001 vs saline (73.7 ± 2.9)

With `CCCCOC(=O)CC(SC[C@H](NC(=O)CC[C@H](N)C(=O)O)C(=O)NCC(=O)O)C(=O)OCCCC` (stereo partly drawn) [DCE-GS di-n-butyl ester sodium, S-(di-n-butyl-α,β-dicarboxyethyl)glutathione sodium] the hygroscopicity (hygroscopicity) was “hygroscopic”, the Edema weight [1, 5] was 60.9 ± 2.8 mg and the “% Inhibition (edema weight)” value ([1]; Table 2, 30 mg/kg) was 17.4%.
With `CCOC(=O)CC(SC[C@H](NC(=O)CC[C@H](N)C(=O)O)C(=O)NCC(=O)O)C(=O)OCC` (stereo partly drawn) [DCE-GS diethyl ester sodium, S-(diethyl-α,β-dicarboxyethyl)glutathione sodium] the Edema weight [1, 5] was 49.7 ± 2.6 mg and the “% Inhibition (edema weight)” value ([1]; Table 2, 30 mg/kg) was 32.6%.
For `N[C@@H](CCC(=O)N[C@@H](CSC(CC(=O)O)C(=O)O)C(=O)NCC(=O)O)C(=O)O` (stereo partly drawn) [DCE-GS, S-(α,β-Dicarboxyethyl)glutathione], the “platelet aggregation inhibitory activity” value (platelet) is given as “platelet aggregation inhibitory activity”, the “Area, Inhibition (%)” value ([2]; 3 mg/kg i.v.) is given as 6.5% and the “Dye, Inhibition (%)” value ([2]; 3 mg/kg i.v.) is given as 17.5%. For the same molecule, the “Area (of stain)” value ([2]; 3 mg/kg i.v., *p < 0.05) was 866 ± 195 mm^2, the Dye ([2]; 3 mg/kg i.v.) was 633 ± 111 μg/site and the “Area, Inhibition (%)” value ([2]; 10 mg/kg i.v.) was 30.5%. The “Dye, Inhibition (%)” value ([2]; 10 mg/kg i.v.) was 38.5%, the “Area (of stain)” value ([2]; 10 mg/kg i.v., **p < 0.01) was 644 ± 88 mm^2 and the Dye ([2]; 10 mg/kg i.v.) was 472 ± 98 μg/site. The “Area, Inhibition (%)” value ([2]; 30 mg/kg i.v.) was 47.2%, the “Dye, Inhibition (%)” value ([2]; 30 mg/kg i.v.) was 43.4% and the “Area (of stain)” value ([2]; 30 mg/kg i.v., ***p < 0.001) was 489 ± 47 mm^2. The Dye ([2]; 30 mg/kg i.v., *p < 0.05) was 434 ± 77 μg/site, the “inhibition of area of stain and amount of dye, in words” value ([2]; 3, 10 and 30 mg/kg i.v.) was “inhibited both the area of stain and the amount of dye on the rat back dose-dependently” and the “death / abnormal behavior” value (male ddY mice) was “neither death nor abnormal behavior”. The “% Release (histamine)” value ([3]; 10^-3 M, n = 3) was 2.9 ± 3.4%, the “% Release (histamine)” value ([3]; 10^-4 M, n = 3) was 59.4 ± 6.2% and the “% Release (histamine)” value ([3]; 10^-5 M, n = 3) was 73.4 ± 6.5%. For the same molecule, the “inhibition of histamine release, in words” value ([3]; 10^-5 to 10^-3 M) was “inhibited histamine release concentration-dependently”, the inhibition at 1000 µM ([3]; Rattus norvegicus, Mast cell, 10^-3 M, n = 3) was 96.1% and the inhibition at 100 µM ([3]; Rattus norvegicus, Mast cell, 10^-4 M, n = 3) was 20.8%. For the same molecule, the inhibition at 10 µM ([3]; Rattus norvegicus, Mast cell, 10^-5 M, n = 3) was 2.1%, the “effect on rat carrageenan-induced conjunctival edema, in words” value [1] was “inhibited rat carrageenan-induced conjunctival edema dose-dependently” and the “Edema weight” value ([1]; Table 1, 3 mg/kg i.v. (caudal vein), *p < 0.001 vs saline (71.7 ± 3.6)) was 50.5 ± 1.9 mg. The “% Inhibition (edema weight)” value ([1]; Table 1, 3 mg/kg i.v.) was 29.6%, the “Edema weight” value ([1]; Table 1, 10 mg/kg i.v., *p < 0.001 vs saline (71.7 ± 3.6)) was 44.9 ± 2.4 mg and the “% Inhibition (edema weight)” value ([1]; Table 1, 10 mg/kg i.v.) was 37.4%. The “Edema weight” value ([1]; Table 1, 30 mg/kg i.v., *p < 0.001 vs saline (71.7 ± 3.6)) was 44.9 ± 2.2 mg, the “% Inhibition (edema weight)” value ([1]; Table 1, 30 mg/kg i.v.) was 37.4% and the antihemogglutination activity [4] was “antihemogglutination activity”.
In the case of `N[C@@H](CCC(=O)N[C@@H](CS)C(=O)NCC(=O)O)C(=O)O` [GSH, glutathione, reference compound], the “effect on rat carrageenan-induced conjunctival edema, in words” value [1] is reported as “no antiinflammatory effect”, the Edema weight [1, 5] is reported as 74.8 ± 3.5 mg and the “% Inhibition (edema weight)” value ([1]; Table 2, 30 mg/kg) is reported as -1.5%.
For “S-(monoethyl-α,β-dicarboxyethyl)glutathione sodium [DCE-GS monoethyl ester sodium]”, the Edema weight [1, 5] was 58.5 ± 2.0 mg and the “% Inhibition (edema weight)” value ([1]; Table 2, 30 mg/kg) was 20.6%.
